{
  "source": "patent US7256268B1",
  "about": "“Human high affinity choline transporter” (University of Florida Research Foundation, priority 2000, dated 2007)",
  "key": {"human HACT": {"molecular_target": "T1, human HACT (Homo sapiens, UniProt Q9GZV3)", "T1 construct": "expressed in transfected cells; host or cells: 293, HELA and SF9 cells (pcDNA, AAV proviral and baculoviral vectors)", "T1 sequence (Q9GZV3 1-580)": "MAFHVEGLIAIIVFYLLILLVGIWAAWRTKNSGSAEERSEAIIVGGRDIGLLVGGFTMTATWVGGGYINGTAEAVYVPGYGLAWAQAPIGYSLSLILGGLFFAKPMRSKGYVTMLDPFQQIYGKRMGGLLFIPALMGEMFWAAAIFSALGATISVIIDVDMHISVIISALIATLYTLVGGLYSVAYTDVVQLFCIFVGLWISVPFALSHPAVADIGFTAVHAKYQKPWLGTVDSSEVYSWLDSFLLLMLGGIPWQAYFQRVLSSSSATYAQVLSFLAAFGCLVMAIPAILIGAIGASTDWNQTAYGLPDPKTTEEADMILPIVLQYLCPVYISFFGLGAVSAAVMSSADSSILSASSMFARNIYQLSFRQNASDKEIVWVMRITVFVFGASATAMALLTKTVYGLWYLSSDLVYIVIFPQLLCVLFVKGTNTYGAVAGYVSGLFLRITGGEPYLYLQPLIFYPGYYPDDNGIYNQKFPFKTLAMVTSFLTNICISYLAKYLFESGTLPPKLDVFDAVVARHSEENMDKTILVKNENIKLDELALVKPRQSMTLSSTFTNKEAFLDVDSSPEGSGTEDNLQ", "assay": "transporter assay for high affinity choline uptake (tritiated choline chloride) in transfected or infected cells", "format": "cell-based", "details": "10 nM of Hemicholinium-3; cells expressing recombinant human HACT (FIG. 1: SF9 cells), 27° C., 30 min", "method": "A transporter assay for high affinity choline uptake was carried out using 293, HELA, and SF9 cells that had been transfected or infected with expression vectors (several eukaryotic expression vectors including pcDNA, AAV proviral vector, and Baculoviral vectors were used) either with or without a cDNA encoding human HACT. Briefly, 2×10^5 cells were incubated with tritiated choline chloride and various amounts of Hemicholinium-3 in 500 microliter media (20 mM HEPES, pH 7.4, 140 mM NaCl, 4 mM KCl, 1 mM MgCl2, 1 mM CaCl2) at 27° C. for 30 min in each transporter assay. The cells were then pelleted and washed three times before they were solublized in 1N NaOH and the tritium content determined by liquid scintillation counting. […] Furthermore, the HACT activity was sensitive to 10 nM of Hemicholinium-3, which is characteristic of high affinity choline transporter. See e.g. Okuda et al. Nat. Neurosci. 3:120-5 (2000)."}, "[1]": {"test_system": "low affinity choline transporter, LACT", "details": "synaptosome preparations; cited from earlier work"}},
  "data": [
    {"smiles": "C[N+]1(C)CCOC(O)(c2ccc(-c3ccc(C4(O)C[N+](C)(C)CCO4)cc3)cc2)C1.[Br-].[Br-]", "note": "(centres unmarked) [hemicholinium-3]", "values": [
      {"measurement": "sensitivity of HACT activity to Hemicholinium-3", "setting": "human HACT", "value": "sensitive"},
      {"measurement": "sensitivity of the low affinity uptake system to hemicholinium-3", "setting": "[1]", "value": "insensitive"}
    ]}
  ]
}
